This is an account of results in patent US8344007B2, “Water-soluble polymer-based cantharimides as potentially selective anti-tumor agents” (priority 2009, dated 2013).

As usually defined, the solubility is the dissolved amount per volume that the medium holds.

A short description of data set [1]: Solubility. Format: physicochemical.
The subject of data set [2] is Hep3B. The data set can be described thus: MTS assay, Hep3B cell growth. In kind it is cell-based. As to conditions: Homo sapiens, 48 hours of incubation. An excerpt: (§1) An acute myelogenous leukaemia (AML) cell line (KG1a) and a hepatocellular carcinoma (HCC) cell line (Hep3B) may be obtained from American Type of Culture Collection (ATCC). The AML cell line may be maintained in RPMI 1640 (JRH Biosciences) supplemented with 10% of heat inactivated fetal bovine serum (Hyclone), together with antibiotics including penicillin and streptomycin. The Hep3B HCC cell line may be maintained in DMEM with 10% of heat inactivated fetal bovine serum (Hyclone), together with antibiotics including penicillin and streptomycin. Cells may be allowed to grow in a humidified cell culture incubator kept at 5% carbon dioxide.
(§2) The effect of the synthesized cantharimides on the growth of the cell lines described above was investigated in vitro using a standard MTS ([3-(4,5-dimethylthiazol-2-yl)-5-(3-carboxymethoxyphen-yl)-2-(4-sulfophenyl)-2H-tetrazolium]) assay. Changes in the cellular viability of cell that include Hep3B and SKHep-1 with cantharidin analogues were monitored using the MTS activity assay. In particular, 1×10^4 hepatoma carcinoma cells (SK-Hep-1) were seeded at day 0. For the MTS assay, the medium was changed after 24 hours, and various compounds were then added at different concentrations. For bone marrow cells, compounds were added at the same day as the seeding. After 48 hours of incubation, the medium was removed, and MTS/PMS solution was added. The added medium was incubated for exactly 30 minutes. Subsequently, optical absorbance was determined at 490 nm using an optical absorbance detector (available from Promega).
More than 30 cantharimides were screened for their effects on cell proliferation and potential cytotoxicity in the two cell lines of Hep3B and SKHep-1. The activities of cantharimide were monitored in the presence of dicantharidic (a commercially available cantharidin-mimic) as a reference control.
Background: Formazan colour is commonly taken as a measure of viable cells.

The test system of data set [3] is leukemia cell line KG1a. Description: MTS assay, leukemia cell line KG1a. In kind it is cell-based. As to conditions: for IC50: Homo sapiens, KG-1a, concentration necessary for 50% of MTS reduction ability vs control, read-out: MTS50 activity.
Text: as §1, §2
The cytotoxic activity of cantharimide of formula (3) using a leukemia cell line KG1a was investigated by means of a MTS assay. The MTS50 activity was measured as the concentration necessary for 50% of MTS reduction ability by the chemical treated cell as compared with the control. […] On the other hand, cantharimide gave a value of about 5 µg/ml for MTS50 activity against the same cancer cell line.

The test system of data set [4] is KG1a AML cell line. The data set can be described thus: Morphology assay, KG1a AML cell line. Also noted: dose or concentration left out as unconfirmed. In kind it is cell-based. Particulars: 48 hours incubation.
Text: as §1
(§3) The morphological effect of cytotoxic action of cantharidic acid and cantharimide on leukemia cells are depicted in FIGS. 1A to 1F. The untreated non-malignant haematological disorder bone marrow and KG1a AML cell lines are depicted in FIGS. 1A and 1D, respectively. The non-malignant haematological disorder bone marrow and KG1a AML cell lines treated with 5 µg/mL of dicantharidic acid are depicted in FIGS. 1B and 1E, respectively. The non-malignant haematological disorder bone marrow and KG1a AML cell lines treated with 5 µg/mL of cantharimide are depicted in FIGS. 1C and 1F, respectively.

The subject of data set [5] is non-malignant haematological disorder bone marrow. The data set can be described thus: Morphology assay, bone marrow. Format: cell-based, human. Particulars: 48 hours incubation.
Text: (§4) Non-malignant hematological disorder bone marrow cells may be collected by a bone marrow aspirate method from consented patients from clinical wards of Prince of Wales Hospital (Hong Kong, China), according to the regulation of the Hospital. Immediately after collection, mononuclear cells may be enriched by Ficoll Plaque (available from General Electricity) gradient centrifugation. Cells may be washed twice by phosphate buffered saline and resuspended in complete medium. Viable cell percentage may then be estimated by trypan blue exclusion assay and counted using a haemacytometer.
The toxicity on non-malignant haematological bone marrow sample was tested to evaluate the side effects of cantharidin, which included bone marrow suppression, and gastrointestinal and urinary tract toxicity.
as §3

Data set [6] relates to non-malignant haematological disorder bone marrow cells. Description: MTS assay, primary culture of bone marrow cells. In kind it is cell-based, human. More on the design: toxicity to bone marrow cells: dose or concentration left out as unconfirmed.
Text: as §4
as §2, with “After 48 hours of incubation, the medium was removed, and MTS/PMS solution was added. The added medium was incubated for exactly 30 minutes.” left out

Structures are written as SMILES. ≈ marks a conversion by molar mass, not a printed value.

`C[C@@]12C(=O)N(c3nc4ccccc4s3)C(=O)[C@]1(C)[C@H]1CC[C@@H]2O1` [Entry 1]: the Solubility in water result in data set [1] is recorded as “Poor”. The same compound returned an IC50 in data set [2] of approximately 6 µg/mL (≈ 18.3 µM).
`Cc1ccc2nc(N3C(=O)[C@@]4(C)[C@@H]5CC[C@@H](O5)[C@@]4(C)C3=O)sc2c1` [Entry 2]: the Solubility in water result in data set [1] is “Poor”. In data set [2], this compound came in with an IC50 of approximately 20 µg/mL (≈ 58.4 µM).
For `COc1ccc2nc(N3C(=O)[C@@]4(C)[C@@H]5CC[C@@H](O5)[C@@]4(C)C3=O)sc2c1` [Entry 3], in that order: “Poor” and approximately 5 µg/mL (≈ 14 µM).
As to `C[C@@]12C(=O)N(c3nc4ccc(OC(F)(F)F)cc4s3)C(=O)[C@]1(C)[C@H]1CC[C@@H]2O1` [Entry 4], the Solubility in water result in data set [1] is listed as “Fair”. The compound also gave an IC50 in data set [2] of approximately 10 µg/mL (≈ 24.2 µM).
For `C[C@@]12C(=O)N(c3nc4ccc(C(F)(F)F)cc4s3)C(=O)[C@]1(C)[C@H]1CC[C@@H]2O1` [Entry 5], in that order: “Fair” and approximately 5 µg/mL (≈ 12.6 µM).
For `C[C@@]12C(=O)N(c3nc4ccc(F)cc4s3)C(=O)[C@]1(C)[C@H]1CC[C@@H]2O1` [Entry 6], in that order: “Poor” and approximately 5 µg/mL (≈ 14.4 µM).
With `C[C@@]12C(=O)N(c3nc4ccc(C(=O)O)cc4s3)C(=O)[C@]1(C)[C@H]1CC[C@@H]2O1` [Entry 7], the solubility in data set [1] (DMSO, organic solvent or mixture) was 250 mg/mL (≈ 671000 µM). Moreover, the Solubility in water result in data set [1] is recorded as “Good”. For the same compound, the IC50 in data set [3] and in data set [2] was approximately 5 µg/mL (≈ 13.4 µM) throughout. Moreover, in data set [4], the “morphological effect on leukemia cells” value is “induced loss of colony formation potential and cell shrinkage”. For the same compound, the “morphological effect on bone marrow cells” value in data set [5] is reported as “colony formation remained unchanged”. In data set [6], the “cytotoxic activity to normal bone marrow cells” value is “lack of cytotoxic activity”.
In the case of `COC(=O)c1ccc2nc(N3C(=O)[C@@]4(C)[C@@H]5CC[C@@H](O5)[C@@]4(C)C3=O)sc2c1` [Entry 8], the Solubility in water result in data set [1] is “Good”.
For `CCCCOC(=O)c1ccc2nc(N3C(=O)[C@@]4(C)[C@@H]5CC[C@@H](O5)[C@@]4(C)C3=O)sc2c1` [Entry 9], the Solubility in water result in data set [1] is recorded as “Good”.
As for `C[C@]1(C(=O)O)[C@@H]2CC[C@@H](O2)[C@@]1(C)C(=O)O` [Entry 11, reference compound], the Solubility in water result in data set [1] was “Excellent”. In addition, the IC50 in data set [2] was approximately 0.25 µg/mL (≈ 1.17 µM).
Take `CC1(C(=O)O)C2CCC(O2)C1(C)C(=O)O` (stereo not shown) [dicantharidic acid, reference compound]: the IC50 in data set [3] is approximately 0.5 µg/mL (≈ 2.33 µM). In data set [3] (MTS50), the “activity to the cancer cell line compared to cantharimide” value was 10 fold. Also, the “morphological effect on leukemia cells” value in data set [4] is “induced loss of colony formation potential and cell shrinkage”. In addition, the “morphological effect on bone marrow cells” value in data set [5] is listed as “induced a similar loss”. For the same compound, the “toxicity to bone marrow cells” value in data set [6] (concentration down to 0.15625, 48 hours of incubation) is recorded as “extremely toxic”.
